In paper PMC12648443, “Modifications of NU-9, a potent protein aggregation inhibitor. Properties and activity in a cellular model of amyotrophic lateral sclerosis” (Bioorganic chemistry, 2025):
Each block holds one molecule with its values, some of them ahead of it.

Key:
[1] = tested on: MG132-induced mutant SOD1 intracellular aggregation in PC12-SOD1^G85R YFP cells; test: Protection against MG132-induced mut-SOD1 intracellular aggregation (fluorescence microscopy); assay type: cell-based; settings: for EC50 against MG132-induced mutant SOD1 intracellular aggregation / EC50: PC12-SOD1^G85R YFP cells, 0.7 μM MG132, 72 h, Inactive = no decrease of aggregates at 10 μM vs vehicle; for loss of potency relative to NU-9: anti-aggregation EC50 compared with NU-9
Method: The PC12 Tet-Off-SOD1^G85R YFP cells were cultured in DMEM media supplemented with 10 % horse serum, 5 % Tet-approved FBS, 1 % Penstrep, 1× L-glutamine, 200 μg/mL hygromycin, 100 μg/mL G418, with 1 μg/mL Doxycycline and were incubated at 37 °C in humidified air with […] until 90–95 % confluency. To induce the expression of SOD1^G85R YFP, the Doxycycline was removed at least 4 days before the experiment. To remove the Doxycycline, the media was removed, and the cells were washed 3 times with 1xPBS. The cells were then cultured in standard culture media without Doxycycline. To set up the assay, the cells were then seeded into 96-well cell culture plates (Greiner Bio-One Catalog #655090) at a concentration of 50,000 cells/well with a final volume of 100 μL/well and incubated in the CO2 incubator at 37 °C for 24 h. The media were removed from the cells and replaced with 100 μL of media containing 0.1 % DMSO or compounds, and incubated in the CO2 incubator at 37 °C for 6 h. The media were then replaced with fresh 100 μL of media containing the diluted compounds with 0.7 μM (−)-MG-132, and the plates were incubated for 72 h under culture conditions. After 72 h, the cells were stained with Hoescht 33,342 (55 μg/mL, 10 μL/well) and imaged (lex = 358, 513 nm) using a Molecular Devices ImageXpress Micro Confocal High-Content Imaging System equipped with a 40× objective. […] Image binning was set to 2. DAPI fluorescence was captured using an exposure time of 300 ms, and FITC fluorescence was captured using an exposure time of 400 ms. A 13-plane z-series was acquired for each field of view with a step size of 3 μm. For each condition, 2 sets of 9 images were generated in a 3 × 3 grid to separately image the SOD1^G85R YFP proteins and the nuclei stained with Hoescht 33,342. Image analysis was performed with MetaXpress software (Molecular Devices) using the Transfluor module. Parameters for puncta detection (aggregates) were set with a minimum pit width of 2 μm and a maximum pit width of 5 μm. Signal intensity thresholds were defined as 700 grayscale units above the local background. The analysis provided the average area of each cell that is covered by puncta (pit/cell), which are indicated by bright green spots on the SOD1^G85RYFP image set.
The assay was performed in triplicate for each condition tested, and wells containing the media with vehicle (0.1 % DMSO) or (−)-MG-132 alone were used as controls representing the minimum and maximum aggregate formation. […] The data for EC50 determination was treated with Prism and fitted using a semi-logarithmic curve for determination of the EC50 values of NU9 and compounds 4, 6, 20 and 21.

[2] = Parallel artificial membrane permeability assay - blood brain barrier (PAMPA-BBB); settings: for Log Pe: High permeability LogPe > −5.33, No permeability LogPe < −6.14; for Papp at 18 h, 250 μM: pig, PAMPA, pH 7.5
[3] = tested on: cells containing SOD1 mutations associated with ALS; parameters: method as in PMID 21073276, PMID 22189273, PMID 22837812; settings: Fig. 1, evolution of CHD series; cited from earlier work
cortical neurons = tested on: cortical neurons; parameters: method as in PMID 22189273; settings: cited from earlier work
P-gp = target: T1, P-gp (Homo sapiens, UniProt P08183); test: MDCK-MDR1 bidirectional permeability / efflux assay; assay type: in vitro ADME; settings: MDCK-MRD1, absence of zosuquidar
T1 construct: host or cells: MDCK-MDR1 (Madin Darby canine kidney cells carrying the MDR1 gene)
Method: The assay was carried out at Sai Life Sciences. Stock solutions of 6, 20, assay controls loperamide, atenolol, and propanolol (4 and 20 mM), and P-gp inhibitor zosuquidar (10 mM) were prepared in DMSO. Then the stock solutions from each test compound were diluted in HBSS buffer containing 10 mM HEPES to obtain the assay working solutions without the P-gp inhibitor at 2 and 10 μM (0.1 % DMSO v/v). Into working solutions containing zosuquidar (5 μM) were individually diluted 6, 20, and loperamide to obtain working solutions containing the test compounds at 2 or 10 μM and zosuquidar at 5 μM.
The MDCK-MDR1 (Madin Darby canine kidney - Multidrug Resistance gene-1) cells were cultured in DMEM media supplemented with 10 % FBS and antibiotics. For transport studies, cells were seeded into PET trans filter membranes (Millipore #PSRP010R5; 1.0 μm pore size) at a density of 1.2 × 10^5 cells/well and colchicine was added to the flasks and plates according to their volume. After 24 h, the media were replaced by fresh media and then changed every 2 days over 8 days. The media were removed from the wells of the basal and apical compartments of the plates, and a solution of HBSS with or without zosuquidar (5 μM) was added to the apical (400 μL) and basal (800 μL) sides of the plates. The plates were pre-incubated at 37 °C for 30 min in humidified air with 5 % CO2. The TTER (Transepithelial-Transendothelial Electrical Resistance) value for each well was recorded (assay TEER >83 Ω.cm^2). The buffer was removed from both compartments, and for the apical to basal direction transport determination, the apical compartment was loaded with 400 μL of the working solutions of the tested compounds or controls (2 or 10 μM) in the presence or absence of zosuquidar (5 μM), and the basal compartment was loaded with 800 μL of HBSS (0.1 % DMSO v/v). For the basal to apical direction transport determination, the compartments were loaded in their reverse order. The assay was performed in duplicate for the two transport directions [apical to basolateral (A → B) and basolateral to apical (B → A)]. After 120 min, 100 μL samples from both the apical and basal sides of the plate were transferred to new 96-deep well plates, quenched with acetonitrile containing an internal standard, vortexed for 5 min, and then centrifuged at 4000 rpm for 10 min. The same procedure was used to prepare a 96-deep well plate containing non-assayed working solutions (t = 0 concentrations). After centrifugation, 100 μL of the supernatant of each well was transferred to a new 96-well plate, and the samples were analyzed by LC-MS/MS.
For each experiment, the apparent permeability (Papp) for each direction and the efflux ratio (ER) were determined by the equations: Papp(cm/s)=(dQ/dt)/A×Co
where dQ/dt is the rate of permeation of the tested compounds across the (0 and 120 min) after correcting for dilution; A is the area of the filter (0.7 cm^2); Co is the initial concentration of the compounds on the donor compartment.
Where P(B→A) is the apparent permeability of the compounds from the basal to the apical direction and P(A→B) is the apparent permeability from the apical to basal direction. Lucifer Yellow was used as a control of the assay to evaluate monolayer integrity after incubation with the working solutions of the compounds, and the results were validated if the permeability of Lucifer Yellow from the apical to the basal side after 1-h incubation was kept <2 %. The results are presented as an average of two independent experiments.

T1 sequence (P08183 whole entry): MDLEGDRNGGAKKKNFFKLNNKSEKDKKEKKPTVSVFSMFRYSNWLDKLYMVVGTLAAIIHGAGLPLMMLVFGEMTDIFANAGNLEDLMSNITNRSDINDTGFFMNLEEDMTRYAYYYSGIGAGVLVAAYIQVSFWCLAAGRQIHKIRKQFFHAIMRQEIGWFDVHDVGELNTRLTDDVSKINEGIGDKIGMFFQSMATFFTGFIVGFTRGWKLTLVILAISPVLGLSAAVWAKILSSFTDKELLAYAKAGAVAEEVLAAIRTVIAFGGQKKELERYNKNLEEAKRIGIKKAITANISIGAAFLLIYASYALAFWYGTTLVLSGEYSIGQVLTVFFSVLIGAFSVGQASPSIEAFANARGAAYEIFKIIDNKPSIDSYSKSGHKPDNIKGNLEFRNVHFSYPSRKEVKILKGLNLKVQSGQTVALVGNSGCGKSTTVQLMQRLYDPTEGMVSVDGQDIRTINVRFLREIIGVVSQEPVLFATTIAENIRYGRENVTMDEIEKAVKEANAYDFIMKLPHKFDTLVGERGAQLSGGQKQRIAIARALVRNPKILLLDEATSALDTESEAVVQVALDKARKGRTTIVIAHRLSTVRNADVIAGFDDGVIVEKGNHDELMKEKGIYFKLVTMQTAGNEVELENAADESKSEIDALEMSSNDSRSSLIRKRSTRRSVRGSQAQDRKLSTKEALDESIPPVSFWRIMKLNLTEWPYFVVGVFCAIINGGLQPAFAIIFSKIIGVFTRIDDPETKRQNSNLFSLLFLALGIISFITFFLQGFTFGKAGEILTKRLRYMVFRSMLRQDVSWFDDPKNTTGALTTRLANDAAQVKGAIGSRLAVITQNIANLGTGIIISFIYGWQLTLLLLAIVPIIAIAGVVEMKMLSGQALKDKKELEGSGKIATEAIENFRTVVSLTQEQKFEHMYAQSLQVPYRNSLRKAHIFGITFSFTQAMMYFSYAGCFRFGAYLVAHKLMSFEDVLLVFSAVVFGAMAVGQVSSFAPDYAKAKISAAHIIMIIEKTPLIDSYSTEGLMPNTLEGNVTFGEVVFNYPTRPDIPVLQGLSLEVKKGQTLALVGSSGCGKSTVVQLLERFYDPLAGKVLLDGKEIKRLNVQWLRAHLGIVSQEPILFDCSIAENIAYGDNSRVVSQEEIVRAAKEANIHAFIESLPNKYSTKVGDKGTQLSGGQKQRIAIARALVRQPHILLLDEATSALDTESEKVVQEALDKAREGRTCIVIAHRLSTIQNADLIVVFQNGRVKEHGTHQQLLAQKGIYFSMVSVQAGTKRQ

SMILES: O=C1CC(=O)CN(CCc2cc(C(F)(F)F)cc(C(F)(F)F)c2)C1 [Compound 10, 1-(3,5-Bis(trifluoromethyl)phenethyl)piperidine-3,5-dione]
EC50 [1]: > 10 µM

SMILES: O=C1CC(=O)CC(C(O)Cc2cc(C(F)(F)F)cc(C(F)(F)F)c2)C1 (stereo not drawn) [Compound 4, 5-(2-(3,5-Bis(trifluoromethyl)phenyl)-1-hydroxyethyl)cyclohexane-1,3-dione]
EC50 [1]: 7.89 ± 1.88 µM
loss of potency relative to NU-9 [1]: 3 fold
Log Pe ([2]; PAMPA-BBB): −6.61
Papp at 18 h, 250 μM [2]: 0.25 ± 0.01 ×10⁻⁶ cm/s

SMILES: O=C1CC(=O)CC(c2ccc(F)cc2)C1 [Compound 1]
EC50 [3]: 0.8 µM

SMILES: O=C1CC(=O)C(Cc2cc(C(F)(F)F)cc(C(F)(F)F)c2)C1 (stereo not drawn) [Compound 8, 4-(3,5-Bis(trifluoromethyl)benzyl)cyclopentane-1,3-dione]
EC50 [1]: > 10 µM

SMILES: O=C1CC2CC(C1)C(Cc1cc(C(F)(F)F)cc(C(F)(F)F)c1)O2 (stereo not drawn) [Compound 11]
EC50 against MG132-induced mutant SOD1 intracellular aggregation [1]: Inactive

SMILES: COC1=CC(=O)C(Cc2cc(C(F)(F)F)cc(C(F)(F)F)c2)C1 (stereo not drawn) [Compound 7, 5-(3,5-Bis(trifluoromethyl)benzyl)-3-methoxycyclopent-2-en-1-one]
EC50 against MG132-induced mutant SOD1 intracellular aggregation [1]: Inactive

SMILES: O=C1CC(=O)CC(c2cc(C(F)(F)F)cc(C(F)(F)F)c2)C1 [Compound 2]
EC50 [3]: 0.7 µM
activity in cortical neuron protection assays (cortical neurons): inactive

SMILES: O=C1CC2CC(C1)C(Cc1cc(C(F)(F)F)cc(C(F)(F)F)c1)O2 (stereo not drawn) [Compound 12]
EC50 against MG132-induced mutant SOD1 intracellular aggregation [1]: Inactive

SMILES: CN(C)C(=O)C(CCN1CCC(O)(c2ccc(Cl)cc2)CC1)(c1ccccc1)c1ccccc1 [Lop., loperamide, reference compound]
Papp (B → A) (P-gp): 25.70 ± 0.35 10^−6 cm/s
efflux ratio at 120 min (P-gp; dog, MDCK-MDR1, read-out: Efflux Ratio): 128
Papp A→B at 120 min (P-gp; dog, MDCK-MDR1, read-out: Papp (A → B)): 0.2 ± 0.06 ×10⁻⁶ cm/s

SMILES: OC1CC2CC(C1)C(Cc1cc(C(F)(F)F)cc(C(F)(F)F)c1)O2 (stereo not drawn) [Compound 13]
EC50 against MG132-induced mutant SOD1 intracellular aggregation [1]: Inactive

SMILES: O[C@@H]1CC([C@H](O)Cc2cc(C(F)(F)F)cc(C(F)(F)F)c2)C[C@H](O)C1 (stereo partly drawn) [Compound 5, (1R,3S)-5-((R)-2-(3,5-Bis(trifluoromethyl)phenyl)-1-hydroxyethyl)cyclohexane-1,3-diol]
EC50 against MG132-induced mutant SOD1 intracellular aggregation [1]: Inactive

SMILES: OC1CC2CC(C1)C(Cc1cc(C(F)(F)F)cc(C(F)(F)F)c1)O2 (stereo not drawn) [Compound 14]
EC50 against MG132-induced mutant SOD1 intracellular aggregation [1]: Inactive

Continued, in another order:

EC50 against MG132-induced mutant SOD1 intracellular aggregation [1]: Inactive
SMILES: Cl.N[C@H]1C[C@H]2C[C@@H](C1)[C@H](Cc1cc(C(F)(F)F)cc(C(F)(F)F)c1)O2 [Compound 18, (1R,3R,5R,7S)-7-(3,5-Bis(trifluoromethyl)benzyl)-6-oxabicyclo[3.2.1]octan-3-aminium chloride]

EC50 [1]: > 10 µM
SMILES: O=C1CC2CC(C1)C(c1cc(C(F)(F)F)cc(C(F)(F)F)c1)O2 (stereo not drawn) [Compound 16]
decrease in MG132-induced SOD-1^G85R aggregate formation ([1]; at 10 μM, 72 h): mild anti-aggregation activity

EC50 against MG132-induced mutant SOD1 intracellular aggregation [1]: Inactive
SMILES: Cl.N[C@@H]1C[C@H]2C[C@@H](C1)[C@H](Cc1cc(C(F)(F)F)cc(C(F)(F)F)c1)O2 [Compound 19, (1R,3S,5R,7S)-7-(3,5-Bis(trifluoromethyl)benzyl)-6-oxabicyclo[3.2.1]octan-3-aminium chloride]

EC50 [1]: 5.37 ± 1.03 µM
Log Pe ([2]; PAMPA-BBB): −4.77
Papp at 18 h, 250 μM [2]: 16.8 ± 0.54 ×10⁻⁶ cm/s
SMILES: O=C1CC(=O)CC(C2(Oc3cc(C(F)(F)F)cc(C(F)(F)F)c3)CCC2)C1 [Compound 21, 5-(1-(3,5-bis(trifluoromethyl)phenoxy)cyclobutyl)cyclohexane-1,3-dione]
loss of potency relative to NU-9 [1]: > 2 fold

EC50 against MG132-induced mutant SOD1 intracellular aggregation [1]: Inactive
SMILES: OC1CC2CC(C1)C(c1cc(C(F)(F)F)cc(C(F)(F)F)c1)O2 (stereo not drawn) [Compound 17]

Pe ([2]; PAMPA-BBB, 250 μM, PBS pH 7.5, 25 °C, 18 h): 17.43 ± 3.20 10^−6 cm/s
Log Pe ([2]; PAMPA-BBB): −4.76
SMILES: CC1=NN(c2ccccc2)C(=O)C1 [Edaravone, edaravone, reference compound]

EC50 against MG132-induced mutant SOD1 intracellular aggregation [1]: Inactive
SMILES: OC1CC2CC(C1)C(Cc1cc(C(F)(F)F)cc(C(F)(F)F)c1)O2 (stereo not drawn) [Compound 15]
